Here are results for 2 compounds from publication PMC12115217, “3,3′-((3-Hydroxyphenyl)azanediyl)dipropionic Acid Derivatives as a Promising Scaffold Against Drug-Resistant Pathogens and Chemotherapy-Resistant Cancer” (Pathogens, 2025).

In one series the test system is E. coli AR-0001. Description: Broth microdilution MIC, E. coli AR-0001. Format: cell-based. Conditions: Escherichia coli, AR0001; multidrug-resistant, KPC-3; CAMHB, 18 ± 2 h; read-out: minimal inhibitory concentration (MIC) E. coli AR-0001. (In general: Dilution methods test growth across graded concentrations, often in twofold steps.)
Series [1] has as its system FaDu cells. The series is described as follows: MTT cell viability at fixed 100 µM, FaDu cells. The class given is cell-based. To be noted: 24 h, described in words (Figure 2).
Another series deals with E. faecalis AR-0671. Description: Broth microdilution MIC, E. faecalis AR-0671. Format: cell-based, Enterococcus faecalis. Conditions: Enterococcus faecalis, AR0671; CAMHB, 18 ± 2 h; read-out: minimal inhibitory concentration (MIC) E. faecalis AR-0671.
For another series, the system named is K. pneumoniae AR-0003. The series is described as follows: Broth microdilution MIC, K. pneumoniae AR-0003. The class given is cell-based. To be noted: Klebsiella pneumoniae, AR0003; KPC-3; CAMHB, 18 ± 2 h; read-out: minimal inhibitory concentration (MIC) K. pneumoniae AR-0003.
The test system of another series is P. aeruginosa AR-1114. Description: Broth microdilution MIC, P. aeruginosa AR-1114. Format: cell-based. Conditions: Pseudomonas aeruginosa, AR1114; IMP-15; CAMHB, 18 ± 2 h; read-out: minimal inhibitory concentration (MIC) P. aeruginosa AR-1114.
Series [2] concerns S. aureus TCH 1516. The series is described as follows: Broth microdilution MIC, S. aureus TCH 1516. To be noted: Staphylococcus aureus, MRSA / USA300, mecA MRSA isolate, USA300 lineage; CAMHB, 18 ±; read-out: minimal inhibitory concentration (MIC) S. aureus TCH 1516. Format: cell-based.
Series [3] has as its system S. aureus TCH 1516. Description: Broth microdilution MIC, S. aureus TCH 1516. Format: cell-based, Staphylococcus aureus. Conditions: mecA MRSA isolate, USA300 lineage; CAMHB, 18 ± 2 h. An excerpt: The multidrug-resistant S. aureus strain TCH 1516 [USA 300-HOU-MR] was obtained from the American Type Culture Collection (ATCC, Manassas, VA, USA) (Table 1). E. faecalis AR-0671, multidrug-resistant E. coli AR-0001, K. pneumoniae AR-0003, P. aeruginosa AR-1114, and A. baumannii AR-0273 strains were acquired from the Centers for Disease Control and Prevention (CDC) AR isolate bank (Table 1). Prior to the initiation of this study, all microbial strains were stored in commercial cryopreservation systems at a temperature of −80 °C. The strains were cultivated on Columbia sheep blood agar (Becton Dickinson, Franklin Lakes, NJ, USA) or potato dextrose agar (PDA) for Candida (Becton Dickinson, Franklin Lakes, NJ, USA).
The antimicrobial activity of 3-((3-hydroxyphenyl)amino)propanoic acid derivatives was assessed by using the broth microdilution method, following the guidelines outlined by the Clinical Laboratory Standards Institute (CLSI), with modifications. In brief, the compounds were dissolved in dimethyl sulfoxide (DMSO) to attain a final concentration of 25–30 mg/mL. Vancomycin hydrochloride (MedChem express, Cat. No. HY-17362), cefazolin (MedChem express, Cat. No. HY-B1892), and meropenem (MedChem express, Cat. No. HY-13678) were used as control antimicrobial drugs and were dissolved in DMSO as described before. Dilution series were prepared in deep 96-well microplates to achieve a two-fold concentration range of 0.25, 0.5, 1, 2, 4, 8, 16, 32, and 64 µg/mL, utilizing cation-adjusted Mueller–Hinton broth (CAMHB) as the growth medium. The microplates containing the dilution series were then inoculated with fresh cultures of each tested organism to reach a final concentration of 5 × 10^4 CFU (colony-forming units) of the test organism in media containing 1% DMSO and 1× drug concentration, with a volume of 200 µL per well. Wells that were inoculated with medium containing 1% DMSO served as positive controls. Subsequently, the microplates were incubated at 35 ± 1 °C for 18 ± 2 h. Following the incubation period, the plates were examined by using a manual microplate viewer (Sensititre Manual Viewbox, ThermoFisher Scientific, Waltham, MA, USA). […] All experiments were conducted in duplicate with three technical replicates for each condition.

The test system of series [4] is FaDu cells. The series is described as follows: Hydrogen peroxide production assay in FaDu cells. Format: cell-based. Conditions: 6 h, 0.25% DMSO, versus untreated control. On the procedure:
FaDu cells were seeded on the 6-well plates and incubated with the compounds as described before. After incubation, cells were cooled down on ice, washed two times with ice-cold PBS, and scraped in PBS. Cells were centrifuged at 10,000× g for 10 min at 4 °C, the supernatant was discarded, and 650 µL of ice-cold PBS was added. Cells were sonicated and centrifuged at 10,000× g for 10 min at 4 °C to remove cell debris. The resulting supernatant was carefully collected for subsequent hydrogen peroxide analysis by using a commercial kit (Pierce™ Quantitative Peroxide Assay Kit (Aqueous), Catalog number 23280) (Invitrogen, ThermoFisher Scientific, Waltham, MA, USA).

The subject of series [5] is FaDu cells. The series is described as follows: MTT dose-response IC50, FaDu cells. The class given is cell-based. To be noted: Homo sapiens, 0–100 µM, 24 h. Here is the method:
(§1) FaDu cells were obtained from the American Type Culture Collection (Rockville, MD, USA). HEK293 cells were kindly provided by Dr. Iliev lab at the Jill Roberts Institute for Inflammatory Bowel Disease, Weill Cornel Medicine of Cornel University (New York, NY, USA). All cells were cultivated in Dulbecco’s Modified Eagle Medium/Nutrient Mixture F-12 (DMEM/F-12) (Gibco, Waltham, MA, USA), 10% fetal bovine serum (FBS) (Gibco, Waltham, MA, USA), 100 U/mL penicillin, and 100 μg/mL streptomycin (P/S) (Gibco, Waltham, MA, USA). Culturing conditions were maintained at 37 °C in a humidified atmosphere containing 5% CO2. The culture medium was refreshed every 2–3 days, and cells were passaged upon reaching 70–80% confluence.
(§2) The in vitro inhibitory effects of the compounds were assessed by using the MTT assay. Briefly, cells were plated in 96-well plates at a density of 1 × 10⁴ cells per well. After the cells were allowed to adhere overnight at 37 °C in 5% CO₂, they were treated with compounds at a concentration of 100 µM in triplicate. Following a 20 h incubation, the MTT reagent was added, and the cells were further incubated for 4 h. The resulting formazan was solubilized in anhydrous DMSO, and absorbance was measured at 570 nm by using a microplate reader. Cell viability was calculated by using the following formula: ([AE − AB]/[AC − AB]) × 100%, where AE, AC, and AB represent the absorbance values of experimental samples, untreated controls, and blank wells, respectively. Data analysis was performed by using GraphPad Prism or QuickCalcs.
(§3) The data were fitted to a nonlinear regression model (GraphPad Prism version 9.0, GraphPad Software, San Diego, CA, USA) to calculate the IC50 values for each compound tested in triplicate.

Another series relates to A. baumannii AR-0273. The series is described as follows: Broth microdilution MIC, A. baumannii AR-0273. The class given is cell-based, Acinetobacter baumannii. Conditions: Acinetobacter baumannii, AR0273; OXA-23; CAMHB, 18 ± 2 h; read-out: minimal inhibitory concentration (MIC) A. baumannii AR-0273.
Series [6] concerns FaDu cells. The series is described as follows: Superoxide dismutase (SOD) activity in FaDu cell lysate. The class given is cell-based. To be noted: 6 h, 0.25% DMSO, versus untreated control (DMSO). Here is the method: FaDu cells were seeded onto 6-well tissue culture plates at a density of 5 × 10^5 cells per well and incubated overnight to allow for cell attachment. Following the incubation period, the cells were treated with the selected compounds dissolved in tissue culture medium containing 0.25% DMSO and incubated for an additional 6 h. After the treatment, the medium was aspirated, and the cells were washed twice with phosphate-buffered saline (PBS) to remove residual compounds. The cells were then trypsinized for 10 min to detach them from the culture surface. Following trypsinization, the cells were collected by centrifugation, washed with ice-cold PBS to remove any residual trypsin, and resuspended in 0.5 mL of ice-cold PBS. The cell suspension was then subjected to sonication on ice for disruption. After sonication, the samples were centrifuged at 10,000× g for 10 min at 4 °C to remove cell debris. The resulting supernatant was carefully collected for the subsequent assessment of SOD activity. The activity of superoxide dismutase (SOD) was determined by using a commercial colorimetric assay kit (Superoxide Dismutase (SOD) Colorimetric Activity Kit, Catalog Number EIASODC) (Invitrogen, ThermoFisher Scientific, Waltham, MA, USA) following the manufacturer’s instructions.

Another series relates to HEK293 cells. The series is described as follows: MTT dose-response IC50, HEK293 cells. To be noted: Homo sapiens, non-cancerous HEK293 cells, 24 h. Format: cell-based. Here is the method: as §1, §2, §3

Values after ≈ are worked out from the molar mass of the structure shown. “Also recorded” adds a separate entry of the source.

For orientation: IC50 means the midpoint of a concentration-inhibition curve.

As for `O=C1CCN(c2cccc(O)c2)C(=S)N1` [Compound 6, 1-(3-Hydroxyphenyl)-2-thioxotetrahydropyrimidin-4(1H)-one], the MIC in the series on E. coli AR-0001 was more than 64 µg/mL; with E. faecalis AR-0671 it was 32 µg/mL (≈ 144 µM); with K. pneumoniae AR-0003 it was more than 64 µg/mL; in the series on P. aeruginosa AR-1114, more than 64 µg/mL; in the series on S. aureus TCH 1516 [2], 8 µg/mL (≈ 36 µM); with A. baumannii AR-0273, more than 64 µg/mL. In addition, in the series on FaDu cells [1], the “post-treatment viability (MTT assay)” value is given as “most promising reduction in cell viability”. Further, the “minimal inhibitory concentration (MIC) S. aureus TCH 1516” value in the series with S. aureus TCH 1516 [3] worked out at 16 µg/mL (≈ 72 µM). Also, in the series with FaDu cells [4], the “hydrogen peroxide levels (optical density at 525 nm)” value was “significantly higher”. Besides, the figures for the half-maximal inhibitory concentration (IC50) in the series on FaDu cells [5] and with HEK293 cells were 13.4 µM and 22.6 µM, respectively. The “SOD activity (U/mL of cell lysate)” value with FaDu cells [6] is “significantly higher”.

As to `O=C(CCN(CCC(=O)N/N=C1\C(=O)Nc2ccccc21)c1cccc(O)c1)N/N=C1\C(=O)Nc2ccccc21` [Compound 25], the MIC with E. coli AR-0001 is 64 µg/mL (≈ 119 µM); in the series on E. faecalis AR-0671 it was 16 µg/mL (≈ 29.7 µM); in the series on K. pneumoniae AR-0003, more than 64 µg/mL; in the series with P. aeruginosa AR-1114, more than 64 µg/mL; in the series on S. aureus TCH 1516 [2], 32 µg/mL (≈ 59.3 µM); in the series on A. baumannii AR-0273 it was more than 64 µg/mL. The “post-treatment viability (MTT assay)” value with FaDu cells [1] is reported as “most promising reduction in cell viability”. For the same compound, the “hydrogen peroxide levels (optical density at 525 nm)” value in the series on FaDu cells [4] is reported as “significantly higher”. Further, the 50% inhibitory concentration (IC50) turned out to be 5.28 µM with FaDu cells [5] and 11.7 µM with HEK293 cells. The “SOD activity (U/mL of cell lysate)” value with FaDu cells [6] is recorded as “significantly higher; also recorded: highest SOD activity”.
